Test results taken from ChEMBL document CHEMBL2417420, “Autotaxin inhibition: development and application of computational tools to identify site-selective lead compounds” (Bioorg Med Chem, 2013).
The source made the active and inactive calls. The calls are words filed in the database; no cut-off is given here.

How the values were obtained:
[1] = biological target: T1, Autotaxin (Homo sapiens, UniProt Q13822); experiment: Inhibition of C-terminal FLAG-tagged human recombinant autotaxin using synthetic substrate FS-3 measured every 2 mins by FRET assay
[2] = biological target: T1, Autotaxin; experiment: Inhibition of C-terminal FLAG-tagged human recombinant autotaxin using synthetic substrate FS-3 at 10 uM measured every 2 mins by FRET assay relative to control
[3] = biological target: T1, Autotaxin; experiment: Competitive inhibition of C-terminal FLAG-tagged human recombinant autotaxin using synthetic substrate FS-3 by Michaelis-Menten equation analysis
[4] = system: A2058; experiment: Reduction of cell migration in human A2058 cells at 30 uM after 4 to 48 hrs by monolayer scratch assay; format: functional; design: scale not given: the % may be the effect or the level left
[5] = system: A2058; experiment: Cytotoxicity against human A2058 cells assessed as reduction of cell number at 30 uM after 24 hrs by MTS assay; format: functional
[6] = system: A2058; experiment: Reduction of autotaxin-induced cell migration in human A2058 cells at 30 uM after 4 to 48 hrs by monolayer scratch assay; format: functional; design: scale not given: the % may be the effect or the level left
[7] = system: A2058; experiment: Reduction of autotaxin and lysophosphatidyl choline-induced cell migration in human A2058 cells at 30 uM after 4 to 48 hrs by monolayer scratch assay; format: functional; design: scale not given: the % may be the effect or the level left
[8] = system: A2058; experiment: Reduction of lysophosphatidyl choline-induced cell migration in human A2058 cells at 30 uM after 4 to 48 hrs by monolayer scratch assay; format: functional; design: scale not given: the % may be the effect or the level left
[9] = biological target: T1, Autotaxin; experiment: Inhibition of C-terminal FLAG-tagged human recombinant autotaxin using paranitrophenyl thymidine monophosphate as substrate at 10 uM measured every 2 mins by […] assay relative to control
[10] = biological target: T1, Autotaxin; experiment: Activation of C-terminal FLAG-tagged human recombinant autotaxin using paranitrophenyl thymidine monophosphate as substrate measured every 2 mins by […] assay
[11] = system: A2058; experiment: Cytotoxicity against human A2058 cells assessed as reduction autotaxin-induced of cell proliferation at 30 uM after 24 hrs by MTS assay; format: functional; design: scale not given: the % may be the effect or the level left
[12] = system: A2058; experiment: Reduction of lysophosphatidic acid-induced cell migration in human A2058 cells at 30 uM after 4 to 48 hrs by monolayer scratch assay; format: functional; design: scale not given: the % may be the effect or the level left
[13] = system: A2058; experiment: Cytotoxicity against human A2058 cells assessed as reduction lysophosphatidic acid-induced of cell proliferation at 30 uM after 24 hrs by MTS assay; format: functional; design: scale not given: the % may be the effect or the level left
[14] = system: A2058; experiment: Cytotoxicity against human A2058 cells assessed as reduction lysophosphatidyl choline-induced of cell proliferation at 30 uM after 24 hrs by MTS assay; format: functional; design: scale not given: the % may be the effect or the level left
[15] = system: A2058; experiment: Cytotoxicity against human A2058 cells assessed as reduction lysophosphatidyl choline and autotaxin-induced of cell proliferation at 30 uM after 24 hrs by MTS assay; format: functional; design: scale not given: the % may be the effect or the level left
[16] = biological target: T1, Autotaxin; experiment: Activation of C-terminal FLAG-tagged human recombinant autotaxin using paranitrophenyl thymidine monophosphate as substrate at 10 uM measured every 2 mins by […] assay

| IC50 [1] | inhibition [2] | Ki [3] | Activity [16] | SMILES | Activity [5] | also measured |
| --- | --- | --- | --- | --- | --- | --- |
| – | – | – | Active | COc1cc(/C=C2/SC(=S)N(Cc3ccccc3)C2=O)ccc1OC(=O)c1ccco1 | – | – |
| 4400 nM | 68.8% | – | – | O=C(O)c1ccc(-c2ccc(/C=C3/SC(=O)N(Cc4ccc(F)cc4)C3=O)o2)cc1 | – | – |
| – | – | – | Active | COc1ccc(OCCNC(=S)Nc2ccc(-c3ccccc3)cc2)cc1 | – | – |
| 2400 nM | 93.7% | – | – | O=C(O)c1ccccc1-c1ccc(/C=C2/SC(=S)N(Cc3ccccc3)C2=O)o1 | – | – |
| 1100 nM | 63.8% | – | – | COc1cc(CCNC(=O)c2ccc3c(c2)nc(-c2cccc4ccccc24)n3CCc2ccc(OC)c(OC)c2)cc(OC)c1 | – | – |
| 900 nM | 85.3% | 200 nM | – | CC(O)C(NC(=O)c1ccc(N2CCC(CCCC3CCN(C(=O)Cc4ccc(-c5ccccc5)cc4)CC3)CC2)nc1)C(N)=O (stereo not drawn) | Active | EC50 [10]: 4440 nM |

The remaining lines, values behind:

| SMILES | IC50 [1] | inhibition [2] | Ki [3] | Activity [16] | Activity [5] | also measured |
| --- | --- | --- | --- | --- | --- | --- |
| CC(C)c1ccc(OCC(=O)N2CCN(c3ccc(C(=O)N4CCCC4C(N)=O)cn3)CC2C)cc1 (stereo not drawn) | 1200 nM | 88.5% | 1600 nM | – | inactive | Activity [4]: 43%; Activity [6]: 19%; Activity [7]: 16%; Activity [8]: 35%; inhibition [9]: 29.3% |
| CC(C)C1C(=O)Nc2cc(S(=O)(=O)NCc3ccccc3)ccc2N1C(=O)CN1CCCCC1 (stereo not drawn) | 6200 nM | 62.3% | – | – | – | – |
| CCCc1ccc(S(=O)(=O)Oc2ccccc2-c2cc(CC)n(CCN3CCCCC3)n2)cc1 | 4900 nM | 61.5% | – | – | – | – |
| CC1CCC(C(C)C)C(OCC(=O)N2CCC(CCCC3CCN(c4ccc(C(=O)N5CCCC5C(N)=O)cc4)CC3)CC2)C1 (stereo not drawn) | 800 nM | 90.5% | 100 nM | – | Active | EC50 [10]: 2790 nM |
| CC(O)C(NC(=O)c1ccc(N2CCC(CCCC3CCN(C(=O)CCC(=O)c4ccccc4)CC3)CC2)nc1)C(N)=O (stereo not drawn) | 900 nM | 87.4% | 500 nM | – | – | Activity [11]: 30%; Activity [12]: 22%; Activity [13]: 27%; Activity [6]: 33%; Activity [7]: 38%; Activity [8]: 28% |
| CC(C)Cc1ccc(C(C)C(=O)N2CCC(CCCC3CCN(c4ccc(C(=O)NC(C(N)=O)C(C)O)cn4)CC3)CC2)cc1 (stereo not drawn) | 800 nM | 87.3% | 800 nM | – | Active | EC50 [10]: 4310 nM |
| CC1CN(c2ccc(C(=O)N3CCCC3C(N)=O)cn2)CCC1C(=O)COc1cccc2ccccc12 (stereo not drawn) | 1000 nM | 64.7% | 1600 nM | – | 49% | Activity [11]: 36%; Activity [12]: 30%; Activity [13]: 44%; Activity [14]: 36%; Activity [15]: 27%; Activity [4]: 39%; Activity [6]: 34%; Activity [7]: 25%; Activity [8]: 24%; inhibition [9]: 10.6% |
| CCOC(=O)C1=C(C)N=c2s/c(=C/c3ccc(O)c(OC)c3)c(=O)n2[C@H]1c1cccc2ccccc12 | – | – | – | Active | – | – |
| COC(=O)C1C(=O)NC(SCC(=O)Nc2ccc(C)cc2Br)=C(C#N)C1c1ccc(OC)cc1 (stereo not drawn) | – | – | – | Active | – | – |
| CCOC(=O)C1=C(C)N=c2s/c(=C/c3cccc(OC)c3O)c(=O)n2[C@@H]1c1ccccc1 | – | – | – | Active | – | – |
| Cc1cc(C)cc(CC(=O)N2CCC(CCCC3CCN(c4ccc(C(=O)NC(C(N)=O)C(C)O)cn4)CC3)CC2)c1 (stereo not drawn) | 900 nM | 83.2% | 17900 nM | – | inactive | Activity [4]: inactive |
| COc1cc(C2CC(=O)NC(SCC(=O)Nc3ccc(Br)cc3)=C2C#N)ccc1O (stereo not drawn) | 3800 nM | 68.6% | 9800 nM | – | – | Activity [12]: 57%; Activity [13]: 28%; Activity [4]: 60%; Activity [6]: 61%; Activity [7]: 60%; Activity [8]: 59% |
| COc1cc(/C=c2/sc3nc4ccccc4n3c2=O)cc(Br)c1OCc1ccccc1Cl | – | – | – | Active | – | – |
| COc1ccc(Cl)cc1NC(=O)CSC1=C(C#N)C(c2ccc(OC)c(OC)c2)CC(=O)N1 (stereo not drawn) | – | – | – | Active | – | – |
